Read-outs that look alike come from different tables or passages of the source.
Key:
human EP2 receptor = molecular target: T1, human EP2 receptor (Homo sapiens, UniProt P43116); assay: EP2 binding assay (PGE2 displacement)
T1 construct: purchased Millipore
Method: Method for Measuring Inhibition of PGE2 Binding to the Human Prostanoid Receptor EP2:
Human EP2 receptor equilibrium competition binding assays were performed according to Abramovitz et al. (M. Abramovitz et al. 2000, Biochimica et Biophysica Acta 1483: 285-293) in a final incubation volume of 100 microL in 50 milliM Bis-Tris, pH6.0 in 96-well plates. Radiolabelled Prostaglandin E2 (PGE2) (1 nanoM [^3H]-PGE2 purchased from Perkin Elmer) was added to the assay as competitive ligand. Test compounds stored as Dimethylsulfoxide (DMSO) stock solutions were added to the assay in serial dilutions in assay buffer while keeping the final DMSO concentration equal in each sample. The reaction was initiated by addition of membrane proteins harbouring human EP2 receptor (ChemiSCREEN™ membrane preparation recombinant human EP2 prostanoid receptor that was purchased by Millipore). Total binding was determined in the absence of test compound or PGE2 and non-specific binding was determined in the presence of 1 microM PGE2. Incubations were conducted for 60 minutes at room temperature until equilibrium was reached and terminated by filtration through GF/B filter (Perkin Elmer) prewetted with 0.3% PEI solution. Unbound radiolabelled PGE2 was removed by 8 wash cycles with the same buffer under ice-cold conditions and the filters containing the residual radioactivity were dried for 60 minutes at 60° C. In order to measure the filter bound radioactivity, 40 microL microscint (scintillation liquid) was added to each filter and the chemiluminescence was determined by TopCount-NTX™. The specific binding was calculated by subtracting non-specific binding from each sample. Percent inhibition by test compounds was calculated based on specific binding without test compound. Each sample was measured in triplicates per experiment and for the calculation of the pIC50 at least 2 independent experiments were performed. Determination of half maximal inhibiting concentration (IC50) was performed with GraphPad Prism Software.
The numbers of the compounds correspond to the examples numbers.
EP2 Binding Assay (PGE2 Displacement): pIC50 Values

[1] = molecular target: T2, human prostanoid receptor EP2 (Homo sapiens, UniProt P43116); assay: EP2 cAMP release assay in CHOp6CreLuc-huEP2 cells (CRE-luciferase readout); type: cell-based
T2 construct: expressed in transfected cells; host or cells: CHO-K1 (CHOp6CreLuc-huEP2)
T2 sequence (P43116 whole entry): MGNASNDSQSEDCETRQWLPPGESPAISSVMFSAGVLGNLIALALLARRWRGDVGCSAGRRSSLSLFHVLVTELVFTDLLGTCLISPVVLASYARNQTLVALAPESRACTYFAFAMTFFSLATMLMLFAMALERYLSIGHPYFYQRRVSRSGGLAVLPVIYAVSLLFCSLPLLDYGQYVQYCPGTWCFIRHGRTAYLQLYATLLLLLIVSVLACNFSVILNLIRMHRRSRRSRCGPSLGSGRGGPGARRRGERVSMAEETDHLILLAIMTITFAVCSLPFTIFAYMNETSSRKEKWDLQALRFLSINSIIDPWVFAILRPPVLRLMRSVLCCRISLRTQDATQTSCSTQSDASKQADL
Method: Method for Measuring cAMP Release in Human EP2 Stably Transfectant Cells:
The potency and efficacy of EP2 agonists have been determined via measuring cAMP release in stably transfectant CHO-K1 cell expressing the human prostanoid receptor EP2 and luciferase enzyme regulated via a 6 times CRE (cAMP response element) containing transcriptional promoter. CHOp6CreLuc-huEP2 cells were seeded into 384-well plate (1000 cells per well) in DMEM/F12 (Dulbecco's Modified Eagle Medium/Nutrient Mixture F12) cell culture medium containing 2% FCS (Fetal Calf Serum) and 500 μg/ml G418 24 hours prior to the experiment. Test compound was added as serial dilutions while keeping the final DMSO concentration constant in each well. […] Cells were incubated together with test compound or butaprost for 4 hours at 37° C. The cAMP release was determined indirectly via luciferase activity that directly correlated to the amount of luciferase enzyme expressed in response to cAMP regulated promoter activity. The luciferase activity was determined by addition of luciferin containing buffer and subsequent quantification of resulting luminescence. Each sample was measured in quadruplicates per experiment and half-maximal effective concentration (EC50) and relative maximal effect compared to butaprost was determined from 3 independent experiments with GraphPad Prism Software. A compound that achieved over 80% of the maximal effect of butaprost was considered as full agonist.
For the following compounds the potency was determined in the cAMP release assay applying human EP2 transfectant CHOp6CreLuc-huEP2 cells. […] The numbers of the compounds correspond to the examples numbers.
EP2 cAMP Release Assay: pEC50

[2] = system: TNFalpha release in human peripheral blood mononuclear cells (PBMC) stimulated with LPS; assay: Inhibition of LPS induced TNFalpha release in human PBMCs; type: cell-based; conditions: 1 ng/mL LPS, 24 hours, reported as range bins, read-out: Inhibition of LPS induced TNFalpha release in human PBMCs pIC30 (-log IC30)
Method: Method for Measuring the Inhibition of TNFalpha Release in Human Peripheral Blood MononuClear Cells (PBMC) Stimulated with LPS:
Assay was performed with some modifications of the method described by Hatzelmann and Schudt (Hatzelmann and Schudt 2001, J. Pharmacol. Exp. Therapeutics 297: 267-279) and the protocol “drawing of venous blood from healthy volunteers for in vitro studies” was approved by the ethics committee of the Landesärztekammer Baden Württemberg in Stuttgart. Peripheral blood mononuclear cells (PBMCs) were isolated from venous blood with the anticoagulant citrate from healthy donors according to standard protocols using Ficoll. The cell layer of PBMCs were washed twice with phosphate buffer solution and equilibrated at room temperature for 60 minutes. 500,000 PBMCs in 180 microL RPMI1640 cell medium supplemented with 10% FCS, NEAA (Non-essential-amino-acids), L-Glutamine and Sodium Pyruvate per sample were pre-incubated with 10 microL of a serial dilution of test compound or piclamilast as positive control for 60 min. at 37° C. After pre-incubation blood samples were stimulated by the addition of 10 microL LPS (Sigma, Aldrich) per sample resulting in a final concentration of 1 ng/mL LPS and a final volume of 200 microL. Cells were incubated for 24 hours at 37° C. TNFalpha levels were determined from cell supernatant that was obtained by a centrifugation step and transferring the supernatant to a new 96-well plate. Content of TNFalpha was determined via alphaLISA Technology according to manufacture protocol (Perkin Elmer).
(§1) PBMC samples that were not stimulated with LPS were used as control and set for 100% inhibition. PBMC samples that were stimulated with LPS and solvent instead of test compound were set as 0% inhibition. Percent inhibition was calculated based on these controls for each sample and since most compounds achieved saturating maximal inhibition of 60% a pIC30 value was calculated with GraphPad Prism Software.
For the following compounds the inhibitory values of TNFalpha release [determined as −log IC30=pIC30] in human PBMCs between 5.0 and 5.9, between 6.0 and 6.9, between 7.0 and 7.9 and between 8.0 and 9.0 have been determined. The numbers of the compounds correspond to the examples numbers.
Inhibition of LPS Induced TNFalpha Release Assay in Human PBMCs: pIC30

[3] = system: TNFalpha release in human whole blood stimulated with LPS; assay: Inhibition of LPS induced TNFalpha release in human whole blood; type: cell-based; conditions: 1 microg/mL LPS, 4 hours, reported as range bins, read-out: Inhibition of LPS induced TNFalpha release in human whole blood pIC30 (-log IC30)
Method: Method for Measuring the Inhibition of TNFalpha Release in Human Whole Blood Stimulated with LPS:
Assay was performed with some modifications of the method described by Hatzelmann and Schudt (Hatzelmann and Schudt (2001) JPET 297: 267-279) and the protocol “drawing of venous blood from healthy volunteers for in vitro studies” was approved by the ethics committee of the Landesärztekammer Baden Württemberg in Stuttgart.
Heparinised venous blood was equilibrated to assay conditions for 1 hour at room temperature upon blood drawing. Immediately thereafter, 200 microL whole blood per sample were pre-incubated with 25 microL of a serial dilution of test compound or piclamilast as positive control for 30 min. at 37° C. After pre-incubation blood samples were stimulated by the addition of 25 microL lipopolysaccharide (LPS) (Sigma, Aldrich) per sample resulting in a final concentration of 1 microg/mL LPS and a final volume of 250 microL. Cells were incubated for 4 hours at 37° C. TNFalpha levels were determined from plasma that was obtained by a centrifugation step and transferring the supernatant to a new 96-well plate which was again centrifuged and clear plasma supernatant was used for the measurement of TNFalpha via alphaLISA Technology according to manufacture protocol (Perkin Elmer).
as §1, with “Whole blood” for “PBMC”
For the following compounds the inhibitory values of TNFalpha release [determined as −log IC30=pIC30] in the human whole blood assay between 4.5 and 4.9, between 5.0 and 5.9 and between 6.0 and 6.9 have been determined. The numbers of the compounds correspond to the examples numbers.
Inhibition of LPS Induced TNFalpha Release Assay in Human Whole Blood: pIC30

[4] = recombinant human EP2 membranes, 1 nanoM [3H]-PGE2, reported as range bins, read-out: EP2 binding (PGE2 displacement) pIC50 (-log IC50) (converted)
[5] = CHOp6CreLuc-huEP2 cells, 4 hours at 37° C., reported as range bins, read-out: EP2 cAMP release assay pEC50 (-log EC50) (converted)

T1 sequence (P43116 whole entry): as above

Structure (SMILES) | IC50 (human EP2 receptor; [4]) | EC50 [1, 5] | IC30 [2] | maximal effect of positive control relative to PGE2 ([1]; CHOp6CreLuc-huEP2 cells) | IC30 [3] | IC50 (human EP2 receptor) | EC50 [1]
O=C(O)/C=C/c1ccc(F)c(NC(=O)c2cc(-c3cccc(CO)c3)cc3ccccc23)c1 [Example 14, (2E)-3-{4-fluoro-3-[({3-[3-(hydroxymethyl)phenyl]naphthalen-1-yl}carbonyl)amino]phenyl}prop-2-enoic acid] | 1.26 to 10 nM | 0.126 to 1 nM | 126 to 1000 nM |  |  |  | 
CCCC1([C@H](O)C/C=C/[C@H]2[C@H](O)CC(=O)[C@@H]2CCCCCCC(=O)OC)CCC1 [butaprost, reference compound] |  |  |  | same maximal effect compared to the maximal effect of PGE2 |  |  | 
O=C(O)COc1cccc(NC(=O)c2cc(-c3ccccc3)cc3ccccc23)c1 [Example 4] | 1.26 to 10 nM | 0.126 to 1 nM | 126 to 1000 nM |  | 12600 to 31600 nM |  | 
O=C(O)CCc1cccc(NC(=O)c2cc(-c3ccccc3)cc3ccccc23)c1 [Example 7, 3-(3-{[(3-phenylnaphthalen-1-yl)carbonyl]amino}phenyl) propanoic acid] | 12.6 to 100 nM | 0.126 to 1 nM | 126 to 1000 nM |  |  |  | 
O=C(O)/C=C/c1ccc(F)c(NC(=O)c2cc(-c3cc(O)cc(F)c3)cc3ccccc23)c1 [Example 15, (2E)-3-[4-fluoro-3-({[3-(3-fluoro-5-hydroxyphenyl)naphthalen-1yl]carbonyl}amino)phenyl]prop-2-enoic acid] | 1.26 to 10 nM | 0.00631 to 0.1 nM | 1 to 10 nM |  | 1260 to 10000 nM |  | 
O=C(O)COc1ccc(Cl)c(NC(=O)c2cc(-c3ccccc3)cc3ccccc23)c1 [Example 6] | 12.6 to 100 nM | 0.00631 to 0.1 nM |  |  |  |  | 
O=C(O)/C=C/c1ccc(F)c(NC(=O)c2cc(-c3ccc(F)cc3)cc3ccccc23)c1 [Example 11, (2E)-3-{3-[({3-[4-fluorophenyl]naphthalen-1-yl}carbonyl)amino]-4fluorophenyl}prop-2-enoic acid] | 1.26 to 10 nM | 0.126 to 1 nM |  |  |  |  | 
O=C(O)COc1ccc(F)c(NC(=O)c2cc(-c3ccccc3)cc3ccccc23)c1 [Example 5, (4-fluoro-3-{[(3-phenylnaphthalen-1-yl)carbonyl]amino}phenoxy)acetic acid] | 1.26 to 10 nM | 0.00631 to 0.1 nM |  |  |  |  | 
O=C(O)/C=C/c1ccc(F)c(NC(=O)c2cc(-c3ccccc3CO)cc3ccccc23)c1 [Example 13, (2E)-3-{4-fluoro-3-[({3-[2-(hydroxymethyl)phenyl]naphthalen-1-yl}carbonyl)amino]phenyl}prop-2-enoic acid] | 1.26 to 10 nM | 0.126 to 1 nM | 126 to 1000 nM |  | 126 to 1000 nM |  | 
O=C(O)CCc1ccc(F)c(NC(=O)c2cc(-c3ccccc3)cc3ccccc23)c1 [Example 8, 3-(4-fluoro-3-{[(3-phenylnaphthalen-1-yl)carbonyl]amino}phenyl) propanoic acid] | 12.6 to 100 nM | 0.126 to 1 nM | 126 to 1000 nM |  |  |  | 
CN(C)C(=O)Oc1cccc(-c2cc(C(=O)Nc3cccc(/C=C/C(=O)O)c3)c3ccccc3c2)c1 [Example 23, (2E)-3-(3-{[(3-{3-[(dimethylcarbamoyl)oxy]phenyl}naphthalen-1-yl)carbonyl]amino}phenyl)prop-2-enoic acid] |  |  | 126 to 1000 nM |  |  | 126 to 2000 nM | 1.26 to 12.6 nM

Second part, led by results:

IC50 (human EP2 receptor; [4]) | EC50 [1, 5] | Structure (SMILES) | IC30 [2] | maximal effect of positive control relative to PGE2 ([1]; CHOp6CreLuc-huEP2 cells) | IC30 [3] | IC50 (human EP2 receptor) | EC50 [1]
126 to 2000 nM | 1.26 to 12.6 nM | O=C(O)/C=C/c1cccc(NC(=O)c2cc(-c3cccc(N4CCNCC4)c3)cc3ccccc23)c1 [Example 20, (2E)-3-{3[({3-[3-(piperazin-1-yl)phenyl]naphthalen-1-yl}carbonyl)amino]phenyl}prop-2-enoic acid] |  |  |  |  | 
1.26 to 10 nM | 0.126 to 1 nM | O=C(O)CCc1ccc(F)c(NC(=O)c2cc(-c3cccc(F)c3)cc3ccccc23)c1 [Example 17, 3-[4-fluoro-3-({[3-(3-fluorophenyl)naphthalen-1-yl]carbonyl}amino)phenyl]propanoic acid] | 126 to 1000 nM |  |  |  | 
126 to 2000 nM | 1.26 to 12.6 nM | O=C(O)/C=C/c1cccc(NC(=O)c2cc(N3CCOCC3)cc3ccccc23)c1 [Example 21, (2E)-3-[3-({[3-(morpholin-4-yl)naphthalen-1-yl]carbonyl}amino)phenyl]prop-2-enoic acid] | 126 to 1000 nM |  |  |  | 
12.6 to 100 nM | 1.26 to 12.6 nM | O=C(O)CCc1ccc(F)c(NC(=O)c2cc(-c3ccccc3F)cc3ccccc23)c1 [Example 16, 3-[4-fluoro-3-({[3-(2-fluorophenyl)naphthalen-1yl]carbonyl}amino)phenyl]-propanoicacid] | 126 to 1000 nM |  |  |  | 
 | 1.26 to 12.6 nM | CC(=O)NCc1cccc(-c2cc(C(=O)Nc3cc(/C=C/C(=O)O)ccc3F)c3ccccc3c2)c1 [Example 18] | 1260 to 10000 nM |  |  |  | 

Reference: US9309187B2, “EP2 receptor agonists” (TAKEDA GMBH, priority 2012, dated 2016)
